Assay results published in ChEMBL document CHEMBL5136977, “Discovery of 1-(5-(1H-benzo[d]imidazole-2-yl)-2,4-dimethyl-1H-pyrrol-3-yl)ethan-1-one derivatives as novel and potent bromodomain and extra-terminal (BET) inhibitors with anticancer efficacy” (Eur J Med Chem, 2022).

Key:
[1] = test system: MV4-11; test: Antiproliferative activity against human MV4-11 cells assessed as cell growth inhibition at 1 uM incubated for 72 hrs by CellTiter-Glo assay relative to control; type: functional
[2] = test system: MV4-11; test: Antiproliferative activity against human MV4-11 cells assessed as cell growth inhibition incubated for 72 hrs by CellTiter-Glo assay; type: functional, cell-based; conditions: MV4-11, 72 h
[3] = target: T1, Bromodomain-containing protein 4 (Homo sapiens, UniProt O60885); test: Inhibition of recombinant his tagged BRD4 BD1 (unknown origin) at 2 uM by Alpha screen assay relative to control
[4] = Metabolic stability in rat liver microsomes assessed as intrinsic clearance incubated for 1 hr by LC-MS/MS analysis; type: ADME, Microsome; conditions: read-out: CLH
[5] = Metabolic stability in monkey liver assessed as intrinsic clearance incubated for 1 hr by LC-MS/MS analysis; type: ADME, tissue-based, Macaca mulatta; conditions: rhesus monkey, read-out: CLH
[6] = Metabolic stability in monkey liver microsomes assessed as elimination half life incubated for 1 hr by LC-MS/MS analysis; type: ADME, Macaca mulatta, Microsome; conditions: rhesus monkey, read-out: beta t1/2
[7] = Metabolic stability in dog liver microsomes assessed as intrinsic clearance incubated for 1 hr by LC-MS/MS analysis; type: ADME, Canis lupus familiaris, Microsome; conditions: read-out: CLH
[8] = Metabolic stability in dog liver assessed as intrinsic clearance incubated for 1 hr by LC-MS/MS analysis; type: ADME, tissue-based, Canis lupus familiaris; conditions: read-out: CLH
[9] = Metabolic stability in rat liver microsomes assessed as elimination half life incubated for 1 hr by LC-MS/MS analysis; type: ADME, Microsome; conditions: read-out: beta t1/2
[10] = Metabolic stability in human liver microsomes assessed as elimination half life incubated for 1 hr by LC-MS/MS analysis; type: ADME, Microsome; conditions: read-out: beta t1/2
[11] = Metabolic stability in human liver microsomes assessed as intrinsic clearance incubated for 1 hr by LC-MS/MS analysis; type: ADME, Microsome; conditions: read-out: CLH
[12] = Metabolic stability in monkey liver microsomes assessed as intrinsic clearance incubated for 1 hr by LC-MS/MS analysis; type: ADME, Macaca mulatta, Microsome; conditions: rhesus monkey, read-out: CLH
[13] = Metabolic stability in dog liver microsomes assessed as elimination half life incubated for 1 hr by LC-MS/MS analysis; type: ADME, Canis lupus familiaris, Microsome; conditions: read-out: beta t1/2
[14] = Metabolic stability in rat liver assessed as intrinsic clearance incubated for 1 hr by LC-MS/MS analysis; type: ADME, tissue-based; conditions: read-out: CLH
[15] = Metabolic stability in human liver assessed as intrinsic clearance incubated for 1 hr by LC-MS/MS analysis; type: ADME, tissue-based; conditions: read-out: CLH
[16] = target: T1, Bromodomain-containing protein 4; test: Inhibition of Alexa647 labelled MS417 binding to his tagged BRD4 BD1 (unknown origin) by TR-FRET assay
[17] = test system: MV4-11; test: Antitumor activity against human MV4-11 cells xenografted BALB/c nude mouse model assessed as tumor growth inhibition at 20 mg/kg, po QD administered for 28 consecutive days; type: functional; conditions: MV4-11, 672 h, time 28 day, read-out: TGI
[18] = test system: SNB-75; test: Antiproliferative activity against human SNB-75 cells assessed as cell growth inhibition measured after 72 hrs by CellTiter-Glo assay; type: functional
[19] = test system: MDA-MB-468; test: Antiproliferative activity against human MDA-MB-468 cells assessed as cell growth inhibition measured after 72 hrs by CellTiter-Glo assay; type: functional
[20] = test system: NCI-H522; test: Antiproliferative activity against human NCI-H522 cells assessed as cell growth inhibition measured after 72 hrs by CellTiter-Glo assay; type: functional
[21] = test system: CAKI-1; test: Antiproliferative activity against human CAKI-1 cells assessed as cell growth inhibition measured after 72 hrs by CellTiter-Glo assay; type: functional
[22] = test system: HL-60(TB); test: Antiproliferative activity against human HL-60(TB) cells assessed as cell growth inhibition measured after 72 hrs by CellTiter-Glo assay; type: functional
[23] = test system: UACC-62; test: Antiproliferative activity against human UACC-62 cells assessed as cell growth inhibition measured after 72 hrs by CellTiter-Glo assay; type: functional
[24] = test system: HCT-15; test: Antiproliferative activity against human HCT-15 cells assessed as cell growth inhibition measured after 72 hrs by CellTiter-Glo assay; type: functional

Question: Which inhibition at 1 µM [1] does the source give for `CC(=O)c1c(C)[nH]c(-c2nc3cc(N4CCOCC4)ccc3[nH]2)c1C` here?
Answer: 21.2%

Question: For `COc1ccc(-c2c(-c3nc4cc(N5CCN(C)CC5)ccc4[nH]3)[nH]c(C)c2C(C)=O)cc1`, which IC50 [2] is on record?
Answer: 223 nM

Question: Which inhibition [3] does the source give for `CC(=O)c1c(C)[nH]c(-c2cnc3ccccc3c2)c1C` here?
Answer: 85.5%

Question: Which IC50 [2] does the source give for `CC(=O)c1c(C)[nH]c(-c2nc3cc(N4CCCCC4)ccc3[nH]2)c1C` here?
Answer: 1810 nM

Question: With `CC(=O)c1c(C)[nH]c(-c2nc3cc(N4CCN(C)CC4)ccc3[nH]2)c1C1CCCCC1` as the compound, how does the inhibition [3] read?
Answer: 79%

Question: Which IC50 [2] does the source give for `COc1ccc(-c2c(-c3nc4cc(N5CCN(C)CC5)ccc4[nH]3)[nH]c(C)c2C(C)=O)cc1OC` here?
Answer: 426 nM

Question: For `CC(=O)c1c(C)[nH]c(-c2nc3cc(N4CCN(C)CC4)ccc3[nH]2)c1-c1cnn(C)c1`, which inhibition at 1 µM [1] is on record?
Answer: 53%

Question: With `CC(=O)c1c(C)[nH]c(-c2nc3cc(N4CCN(C)CC4)ccc3[nH]2)c1-c1ccccc1Cl` as the compound, how does the IC50 [2] read?
Answer: 438 nM

Question: For `CC(=O)c1c(C)[nH]c(-c2nc3cc(N4CCN(C)CC4)ccc3[nH]2)c1-c1ccc(Cl)cc1`, which IC50 [2] is on record?
Answer: 291 nM

Question: With `CCc1c(-c2nc3cc(N4CCN(C)CC4)ccc3[nH]2)[nH]c(C)c1C(C)=O` as the compound, how does the IC50 [2] read?
Answer: 617 nM

Question: For `COc1cccc(-c2c(-c3nc4cc(N5CCN(C)CC5)ccc4[nH]3)[nH]c(C)c2C(C)=O)c1`, which IC50 [2] is on record?
Answer: 284 nM

Question: For `CC(=O)c1c(C)[nH]c(-c2nc3cc(N4CCN(C)CC4)ccc3[nH]2)c1-c1ccc2ccccc2c1`, which IC50 [2] is on record?
Answer: 556 nM

Question: What does the source list for `CC(=O)c1c(C)[nH]c(-c2nc3cc(N4CCOCC4)ccc3[nH]2)c1-c1ccccc1`?
Answer: microsomal CLint [4]: 68 µL/min/mg; CLint scaled [5]: 63.1 mL/min/kg; half-life [6]: 31.6 min; microsomal CLint [7]: 31.1 µL/min/mg; CLint scaled [8]: 44.8 mL/min/kg; half-life [9]: 20.4 min; half-life [10]: 61.4 min; IC50 [2]: 318 nM; microsomal CLint [11]: 22.6 µL/min/mg; microsomal CLint [12]: 43.8 µL/min/mg; half-life [13]: 44.6 min; CLint scaled [14]: 122 mL/min/kg; CLint scaled [15]: 21.4 mL/min/kg

Question: For `CC(=O)c1c(C)[nH]c(-c2ccc3cc[nH]c3c2)c1C`, which inhibition [3] is on record?
Answer: 79.5%

Question: With `CC(=O)c1c(C)[nH]c(-c2nc3cc(N4CCN(C)CC4)ccc3[nH]2)c1C(C)C` as the compound, how does the inhibition [3] read?
Answer: 98.9%

Question: With `CC(=O)c1c(C)[nH]c(-c2nc3ccccc3s2)c1C` as the compound, how does the inhibition [3] read?
Answer: 73.6%

Question: For `CCN(CC)c1ccc2[nH]c(-c3[nH]c(C)c(C(C)=O)c3C)nc2c1`, which inhibition at 1 µM [1] is on record?
Answer: 19.7%

Question: Which IC50 [16] does the source give for `CCS(=O)(=O)Nc1ccc(Oc2ccc(F)cc2F)c(-c2cn(C)c(=O)c3[nH]ccc23)c1` [MIVEBRESIB] here?
Answer: 11 nM

Question: With `CC(=O)c1c(C)[nH]c(-c2nc3c([nH]2)=CCC(Nc2ccnc(Cl)n2)C=3)c1C` (stereo not drawn) as the compound, how does the inhibition [3] read?
Answer: 91.1%

Question: Which inhibition [3] does the source give for `CC(=O)c1c(C)[nH]c(-c2ccc3c4ccccc4n(C)c3c2)c1C` here?
Answer: 84%

Question: For `CCS(=O)(=O)N1CCN(c2ccc3[nH]c(-c4[nH]c(C)c(C(C)=O)c4C)nc3c2)CC1`, which IC50 [2] is on record?
Answer: 1640 nM

Question: With `Cc1sc2c(c1C)C(c1ccc(Cl)cc1)=N[C@@H](CC(=O)OC(C)(C)C)c1nnc(C)n1-2` as the compound, how does the IC50 [2] read?
Answer: 157 nM

Question: For `CC(=O)c1c(C)[nH]c(-c2nc3cc(N4CCN(C)CC4)ccc3[nH]2)c1-c1cccc(Cl)c1`, which IC50 [2] is on record?
Answer: 321 nM

Question: Which IC50 [2] does the source give for `CC(=O)c1c(C)[nH]c(-c2nc3cc(N4CCN(C)CC4)ccc3[nH]2)c1-c1ccc2c(c1)OCO2` here?
Answer: 161 nM

Question: Which results are given for `Cc1sc2c(c1C)C(c1ccc(Cl)cc1)=N[C@@H](CC(=O)Nc1ccc(O)cc1)c1nnc(C)n1-2` [BIRABRESIB]?
Answer: inhibition in vivo at 20 mg/kg [17]: 63.5%; GI50 [18]: 29.6 nM; GI50 [19]: 212 nM; GI50 [20]: 262 nM; GI50 [21]: 94.6 nM; GI50 [22]: 179 nM; GI50 [23]: 162 nM; GI50 [24]: 179 nM

Question: Which IC50 [2] does the source give for `CSc1ccc(-c2c(-c3nc4cc(N5CCN(C)CC5)ccc4[nH]3)[nH]c(C)c2C(C)=O)cc1` here?
Answer: 187 nM

Question: Which IC50 [2] does the source give for `CC(=O)c1c(C)[nH]c(-c2nc3cc(N4CCN(C)CC4)ccc3[nH]2)c1-c1ccc2c(c1)OCCO2` here?
Answer: 157 nM

Question: Which IC50 [2] does the source give for `CC(=O)c1c(C)[nH]c(-c2nc3cc(N4CCC(CO)CC4)ccc3[nH]2)c1C` here?
Answer: 1560 nM

Question: For `CCOc1ccc(-c2c(-c3nc4cc(N5CCN(C)CC5)ccc4[nH]3)[nH]c(C)c2C(C)=O)cc1`, which IC50 [2] is on record?
Answer: 192 nM

Question: With `COc1ccc(-c2c(-c3nc4cc(N5CCN(C)CC5)ccc4[nH]3)[nH]c(C)c2C(C)=O)cc1F` as the compound, how does the IC50 [2] read?
Answer: 219 nM

Question: For `CC(=O)c1c(C)[nH]c(-c2nc3cc(N4CCN(C)CC4)ccc3[nH]2)c1-c1ccc(C)cc1`, which IC50 [2] is on record?
Answer: 176 nM

Question: For `CC(=O)c1c(C)[nH]c(-c2nc3cc(N4CCN(C)CC4)ccc3[nH]2)c1C`, which IC50 [2] is on record?
Answer: 699 nM

Question: For `CC(=O)c1c(C)[nH]c(-c2nc3cc(N4CCN(C)CC4)ccc3[nH]2)c1-c1ccc(N(C)C)cc1`, which IC50 [2] is on record?
Answer: 192 nM

Question: Which inhibition at 1 µM [1] does the source give for `COc1ccccc1-c1c(-c2nc3cc(N4CCN(C)CC4)ccc3[nH]2)[nH]c(C)c1C(C)=O` here?
Answer: 25.3%
